Values of other authors in patent US20110256218A1, “CONTROLLED RELEASE COMPOSITIONS COMPRISING MECLIZINE OR RELATED PIPERAZINE DERIVATIVES” (EURAND, INC., priority 2010, published 2011).
Counter-ions that a name gives are not always drawn.

Experiments:
[1] = weakly basic chemical entity
[2] = in vivo
[3] = patients taking meclizine
[4] = in humans

pKa [1]	plasma half-life [4]	Compound	effects lasting (duration of action) [2] [h]	onset of action [2]	sedation reported (common side effect) [3]
6.2		Cc1cccc(CN2CCN(C(c3ccccc3)c3ccc(Cl)cc3)CC2)c1 (stereo not drawn) [Meclizine 2HCl.H2O, 1-(p-chloro-α-phenylbenzyl)-4-(m-methylbenzyl)piperazine dihydrochloride monohydrate]			
	about 6 hours	Cc1cccc(CN2CCN(C(c3ccccc3)c3ccc(Cl)cc3)CC2)c1 (centres unmarked) [meclizine]	8 to 24	about 1 hour	20%-30%
